Results on six compounds are retold here after US10085988B1, “Aglaroxin C and derivatives as HCV entry inhibitors” (SRI International, priority 2015, dated 2018).

A word on the EC50: it is the concentration that produces a half-maximal response. Low readings indicate a more potent agent, high ones a less potent agent. A word on the CC50: it is the concentration that lowers cell viability or growth by half. The low end stands for greater toxicity to the cells, the high end for lower toxicity to the cells. Broadly, the half-life is the time in which the quantity being followed falls by half. Low readings indicate rapid decline, high ones slow decline.

Some results are limits rather than exact numbers.

In series [1] the test system is JFH-1 genotype 2a infectious virus (HCVcc). In words: HCV (HCVcc) infection / viral entry inhibition on Huh7.5.1 cells. The series is classed as cell-based, Hepatitis C virus. As to conditions: for EC50: Hepatitis C virus; for inhibition on HCV entry (enantiomer comparison): HCVcc infection. The method, then:
(§1) (A) PHHs seeded in a 48-well plate were treated with Roc-A or DMSO and then infected by HCVpp. EC50and CC50 (50% cytotoxicity dose) were calculated based on the fitted Sigmoid curves. (B) Huh7.5.1 cells were treated with Roc-A (20 nM) or DMSO for 1, 2, and 3 days. Cellular PHB1, PHB2, CRaf, and Ras were detected by Western blotting. Numbers shown below Western blot gel images indicate the relative protein levels quantified by Odyssey imaging system (LI-COR Biosciences). (C-D) Flag-CRaf (F-CRaf) and V5-tagged PHB1 & 2 were co-transfected into 293T cells and then left untreated or treated with Roc-A (20 nM) before immunoprecipitation with anti-Flag antibody. The pulled-down PHB1 & 2 as well as CRaf were detected by immunoblotting. (E) Different inhibitory profiles of the (+)- and(−)-Roc-A enantiomers on HCVcc infection. (F) A CMV-luciferase reporter construct was transfected into Huh7.5.1 cells. 24 h post-transfection each compound was added to the cells for 3 h at 2 μM. After removal of the compound, the cells were further incubated for 24 h followed by luciferase assay. […] HCVcc-Luc was added to Huh7.5.1 cells at 37° C. and incubated for 3 h. At the indicated time points, 2μM of each compound or DMSO was added into the media and incubated for 3 h prior to removal. Infected cells were incubated at 37° C. for an additional 48 h prior to luciferase assay (mean of n=3; error bars, s.d.).
(§2) In a preferred embodiment, Y is C, R1, R3, and R4 from the structure 5 is —OCH3, and R2 and R5 is hydrogen, which is aglaroxin C. […] The term EC50 refers to the concentration of a drug or antibody which induces a response halfway between the baseline and maximum after a specified exposure time. It is commonly used as a measure of drug's potency. The 50% cytotoxic concentration (CC50) is defined as the quantity of a toxicant generating 50% of cell viability, compared to the control. The values of the percentages of cell viability were plotted against toxicant concentrations, and CC50 is determined. (TI) is a comparison of the amount of a therapeutic agent that causes the therapeutic effect to the amount that causes toxicity.

A further series relates to HCVcc-Luc. Put plainly: Time-of-addition experiment, HCVcc-Luc on Huh7.5.1 cells. The series is classed as cell-based, Hepatitis C virus. To be noted: 2 μM. The method, then: as §1
A short description of series [2]: Cytotoxicity (CC50) on Huh7.5.1 cells. The series is classed as cell-based. As to conditions: human; for CC50 at 3 h: compounds incubated with cells for a total of 3 h on Huh7.5.1 cells; for CC50 at 48 h: compounds incubated with cells for a total of 48 h on Huh7.5.1 cells.
Excerpt: as §2

Series [3] has as its system protein translation (luciferase reporter gene). In words: Translation inhibition, CMV-luciferase reporter transfected into Huh7.5.1 cells. To be noted: compound added for 3 h, luciferase reporter in Huh7.5.1 cells. The series is classed as cell-based, human. The method, then:
as §1
In general terms: Reporter assays use an easily measured gene product as a stand-in for the process of interest.

The test system of a further series is CHIKVpp. In words: CHIKVpp infection of Huh7.5.1 cells. The series is classed as cell-based, chikungunya virus. To be noted: low nanomolar concentrations. The method, then:
FIGS. 4A and 4B illustrate that PHBs are required for CHIKVpp entry. (A) Huh7.5.1 were transfected with indicated siRNA, followed by infection of CHIKVpp (mean±SD, *p<0.05). (B) Huh 7.5.1 cells were treated with DMSO or Roc-A (10 nM) and then infected by CHIKVpp for luciferase assay (mean±SD, *p<0.05).

In series [4] the target is PHB1, PHB2, CRaf, and Ras (Homo sapiens (Human), UniProt P35232+Q99623). Put plainly: Western blot of total cellular protein levels in Huh7.5.1 cells. The series is classed as cell-based. As to conditions: 20 nM, 1, 2, and 3 days. The method, then:
as §1

For the next series, the target named is PHB1 and PHB2 (Homo sapiens (Human), UniProt P35232+Q99623). In words: Cell surface biotinylation assay. The series is classed as cell-based. As to conditions: 20 nM, Huh7.5.1 cells.
For series [5] the following is noted: human liver microsomal stability assay.
A further series deals with PHB-CRaf interaction (Homo sapiens (Human), UniProt P35232+Q99623). In words: Co-IP of Flag-CRaf and V5-tagged PHB1 & 2 in 293T cells. The class given is cell-based. To be noted: 20 nM. The method, then: as §1
Sequence of PHB-CRaf interaction (P35232 whole entry): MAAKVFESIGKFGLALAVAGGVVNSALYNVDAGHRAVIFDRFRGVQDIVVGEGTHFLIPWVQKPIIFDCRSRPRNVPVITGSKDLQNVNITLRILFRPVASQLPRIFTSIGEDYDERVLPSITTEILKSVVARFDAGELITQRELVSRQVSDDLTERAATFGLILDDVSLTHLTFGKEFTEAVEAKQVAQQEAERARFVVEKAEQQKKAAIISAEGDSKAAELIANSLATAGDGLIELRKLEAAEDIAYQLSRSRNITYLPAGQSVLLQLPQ
Sequence of PHB-CRaf interaction (Q99623 whole entry): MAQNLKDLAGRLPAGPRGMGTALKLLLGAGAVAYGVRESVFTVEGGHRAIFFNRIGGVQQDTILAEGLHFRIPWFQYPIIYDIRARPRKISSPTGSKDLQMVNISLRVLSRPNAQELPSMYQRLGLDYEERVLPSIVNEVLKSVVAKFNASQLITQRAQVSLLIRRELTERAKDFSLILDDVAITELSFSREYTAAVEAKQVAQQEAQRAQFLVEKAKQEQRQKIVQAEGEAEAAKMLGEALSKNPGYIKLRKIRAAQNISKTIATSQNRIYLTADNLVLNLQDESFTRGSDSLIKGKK
A further series concerns HCVpp. Put plainly: HCVpp infection/entry, primary human hepatocytes (PHHs), with cell viability. The series is classed as cell-based, Hepatitis C virus.
Another series relates to DENV2. In words: DENV2 infection of Huh7.5.1 cells. The class given is cell-based, dengue virus. The method, then: Huh7.5.1 cells were treated by DMSO, Roc-A (5nM) or Roc-A (10nM) for 10 hours prior to infection by DENV2 (MOI 0.1 and 1). 36 hours post-infection, cells were fixed in methanol and immunostained for DENV prM/E (red).
Series [6] has as its system HCV RNA replication or protein translation. Put plainly: HCV RNA replication or protein translation. The series is classed as cell-based, Hepatitis C virus. As to conditions: 20 nM.
[7] abbreviates: 3 h incubation on Huh7.5.1 cells.
The mark [8] stands for this setting: 48 h incubation on Huh7.5.1 cells.

As for `COc1ccc([C@@]23Oc4cc(OC)cc(OC)c4[C@]2(O)c2nc4n(c(=O)c2[C@H]3c2ccccc2)CCC4)cc1` (racemic) [(±) aglaroxin C (C10), aglaroxin C], the “TI (CC50/EC50)” value in series [1] (setting [7]) turned out to be 100; in series [1] (setting [8]), 500. Moreover, the 50% effective concentration (EC50) in [1] (Huh-7.5.1, 3 h) is 100 nM; in [1] (Huh-7.5.1, 48 h), 0.04 nM. Besides, the “half-maximum effective concentrations (EC50)” value in [1] (JFH-1 genotype 2a infectious virus in cell culture) is reported as “picomolar”. The anti-HCV activity entry in the series with HCVcc-Luc (added about 3 h after the infection was initiated) was “lost its activity”; in the series on HCVcc-Luc (added together with the virus) it was “inhibited HCV infection when added together with the virus”; in the series on HCVcc-Luc (added together with the virus, listed as chiral, racemic aglaroxin C), “maximal anti-HCV activity”. The compound also registered a 50% cytotoxic concentration (CC50) at 3 h in [2] of 10000 nM. In [2], this compound registered a CC50 at 48 h of 20 nM. The “Translation inhibition at 2 μM” value in series [3] was “No”; in [3] (listed as chiral, racemic aglaroxin C) it was “did not inhibit”.
For the compound `COc1ccc([C@]23Oc4cc(OC)cc(OC)c4[C@@]2(O)[C@@H](O)[C@@H](C(=O)N(C)C)[C@@H]3c2ccccc2)cc1` [(+) Roc-A], the EC50 in [1] (Huh-7.5.1, 3 h) is > 200000 nM. The CC50 at 3 h in series [2] stood at 300000 nM. Besides, the “Translation inhibition at 2 μM” value in series [3] is given as “No”.
In the case of `COc1ccc([C@]23Oc4cc(OC)cc(OC)c4[C@@]2(O)c2nc4n(c(=O)c2[C@@H]3c2ccccc2)CCC4)cc1` [(+)-aglaroxin C], the “TI (CC50/EC50)” value in series [1] (setting [7]) was 5^1. In series [1] (Huh-7.5.1, 3 h), this compound yielded an EC50 of 20000 nM. The CC50 at 3 h in series [2] is 100000 nM. In [3], the “Translation inhibition at 2 μM” value is on record as “No”.
As for `COc1ccc([C@@]23Oc4cc(OC)cc(OC)c4[C@]2(O)[C@H](O)[C@H](C(=O)N(C)C)[C@H]3c2ccccc2)cc1` [(−) Roc-A], the “TI (CC50/EC50)” value in [1] (setting [7]) stood at 50; in series [1] (setting [8]), 75. For the same compound, the “inhibition on HCV entry (enantiomer comparison)” value in [1] is given as “stronger inhibition on HCV entry than the (+) enantiomer”. Besides, the EC50 stood at 1000 nM in series [1] (Huh-7.5.1, 3 h) and 4 nM in [1] (Huh-7.5.1, 48 h). The same compound displayed a CC50 at 3 h in [2] of 50000 nM. In addition, the midpoint of cytotoxicity in series [2], the CC50 at 48 h, lay at 300 nM. Also, the “Translation inhibition at 2 μM” value in series [3] is listed as “No”.
In the case of `COc1ccc([C@@]23Oc4cc(OC)cc(OC)c4[C@]2(O)c2nc4n(c(=O)c2[C@H]3c2ccccc2)CCC4)cc1` [(−)-aglaroxin C], the “TI (CC50/EC50)” value in [1] (setting [7]) is given as 60^1. Besides, in [1], the “inhibition on HCV entry (enantiomer comparison)” value was “active enantiomer”. This compound also showed an EC50 in series [1] (Huh-7.5.1, 3 h) of 200 nM. The compound also had a CC50 at 3 h in series [2] of 12000 nM. The “Translation inhibition at 2 μM” value in series [3] was “No”.
With `COc1ccc([C@@]23Oc4cc(OC)cc(OC)c4[C@]2(O)[C@H](O)[C@H](C(=O)N(C)C)[C@H]3c2ccccc2)cc1` [Roc-A, rocaglamide A], the CHIKVpp infection entry in the series with CHIKVpp is recorded as “significantly reduced”. Besides, the “PHB1, 2, Ras, and CRaf at the total protein level” value in series [4] was “decreased”. On PHB1 and PHB2, the “cell surface expression of PHB1 and 2” value is listed as “decreased”. In addition, the half-life in series [5] is reported as 37 min. The “PHB-CRaf interaction in co-IP experiment” value at PHB-CRaf interaction is on record as “disrupted”. In the series with HCVpp (low nanomolar concentrations), the HCVpp infection entry is “significantly reduced”. In the series on HCVpp (pretreatment of PHHs at non-cytotoxic concentrations), the HCVpp entry result is on record as “suppressed”. Also, the DENV2 infection entry with DENV2 (5 nM or 10 nM for 10 hours prior to infection, MOI 0.1 and 1, Huh7.5.1 cells) is given as “reduced”. Moreover, the dengue virus infection result in the series with DENV2 (low nanomolar concentrations) is “significantly reduced”. Further, in series [1] (low nanomolar concentrations), the HCVcc infection entry is “significantly reduced”. Further, in series [6], the “inhibition of HCV RNA replication or protein translation” value is given as “did not inhibit”.
